Data as given in ChEMBL document CHEMBL4725296, “The novel HOCl fluorescent probe CAN induced A549 apoptosis by inhibiting chlorination activity of MPO” (Bioorg Med Chem Lett, 2020).
The source made the active and inactive calls. No cut-off for these calls is given here.

Tests used:
A549 [1] = experiment: Antitumor activity against human A549 cells treated chicken chorioallantoic membrane assessed as increase in apoptosis cells in tumour mass at 200 uM by TUNEL staining based confocal microscopic analysis; format: functional, cell-based
A549 [2] = experiment: Antitumor activity against human A549 cells treated chicken chorioallantoic membrane assessed as reduction in tumour mass at 200 uM measured after 3 to 8 days; format: functional, cell-based; settings: time day 3-8
Chorioallantoic membrane [3] = experiment: Induction of angiogenesis in chicken chorioallantoic membrane at 200 uM by CAM assay; parameters: species or system Gallus gallus
RAW264.7 [4] = experiment: Cytotoxicity against mouse RAW264.7 cells assessed as reduction in cell viability at 10 uM incubated for 12 hrs relative to control; format: cell-based; settings: raw264.7, 12 h
A549 [5] = experiment: Induction of apoptosis in human A549 cells assessed as increase in cleaved PARP1 level incubated for 24 hrs by Western blot analysis; format: functional, cell-based
[6] = target: T1, Myeloperoxidase (Homo sapiens) (UniProt P05164); experiment: Effect on MPO in human A549 cells assessed as reduction in chlorination activity at 10 uM measured after 3 to 12 hrs by fluorescence assay; format: cell-based; settings: filed as modulator, time hrs 3-12
T1 sequence (whole entry): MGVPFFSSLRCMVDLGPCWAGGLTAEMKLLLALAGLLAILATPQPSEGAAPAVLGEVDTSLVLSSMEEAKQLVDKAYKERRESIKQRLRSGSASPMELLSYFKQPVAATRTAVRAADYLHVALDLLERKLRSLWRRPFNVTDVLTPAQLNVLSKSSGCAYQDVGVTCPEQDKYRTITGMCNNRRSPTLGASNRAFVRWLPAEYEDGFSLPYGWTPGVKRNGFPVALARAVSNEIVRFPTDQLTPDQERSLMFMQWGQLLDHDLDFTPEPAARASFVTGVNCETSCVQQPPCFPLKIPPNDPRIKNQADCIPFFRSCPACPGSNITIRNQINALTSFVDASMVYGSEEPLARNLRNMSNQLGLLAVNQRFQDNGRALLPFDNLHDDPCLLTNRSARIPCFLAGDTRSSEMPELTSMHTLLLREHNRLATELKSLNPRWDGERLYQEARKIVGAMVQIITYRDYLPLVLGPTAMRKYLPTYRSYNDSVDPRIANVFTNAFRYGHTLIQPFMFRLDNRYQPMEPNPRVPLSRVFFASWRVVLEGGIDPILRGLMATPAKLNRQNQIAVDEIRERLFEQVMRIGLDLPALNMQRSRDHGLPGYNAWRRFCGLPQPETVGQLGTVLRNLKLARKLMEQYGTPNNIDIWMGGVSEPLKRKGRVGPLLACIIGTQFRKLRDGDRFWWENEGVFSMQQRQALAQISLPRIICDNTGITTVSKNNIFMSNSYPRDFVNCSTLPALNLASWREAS

A549 [7] = experiment: Cytotoxicity against human A549 cells assessed as reduction in cell growth at 1 to 10 uM incubated for 24 to 48 hrs; format: functional, cell-based; settings: dose microM 1-10, time hrs 24-48
A549 [8] = experiment: Antitumor activity against human A549 cells treated chicken chorioallantoic membrane assessed as reduction in tumour mass at 50 to 100 uM measured after 3 to 8 days; format: functional, cell-based; settings: dose microM 50-100, time day 3-8
RAW264.7 [9] = experiment: Photostability of compound in mouse RAW264.7 cells at 1 uM measured for 10 to 120 secs; format: ADME, cell-based; settings: raw264.7, 1 µM, time 10-120 sec
A549 [10] = experiment: Antitumor activity against human A549 cells treated chicken chorioallantoic membrane assessed as increase in apoptosis cells in tumour mass at 50 to 100 uM by TUNEL staining based confocal microscopic analysis; format: functional, cell-based; settings: dose microM 50-100
A549 [11] = experiment: Induction of morphological changes in human A549 cells assessed as appearance of round shaped cells at 1 uM incubated for 48 hrs; format: functional, cell-based
HUVEC = experiment: Cytotoxicity against HUVEC assessed as reduction in cell viability; format: cell-based; settings: human
Chorioallantoic membrane [12] = experiment: Induction of angiogenesis in chicken chorioallantoic membrane at 50 to 100 uM by CAM assay; parameters: species or system Gallus gallus; settings: dose 50-100 µM
RAW264.7 [13] = experiment: Cytotoxicity against mouse RAW264.7 cells assessed as reduction in cell viability at 1 uM incubated for 12 hrs; format: cell-based; settings: raw264.7, 12 h
RAW264.7 [14] = experiment: Cytotoxicity against mouse RAW264.7 cells assessed as reduction in cell viability at 5 uM incubated for 12 hrs relative to control; format: cell-based; settings: raw264.7, 12 h
A549 [15] = experiment: Induction of morphological changes in human A549 cells assessed as nuclear fragmentation at 0.5 to 10 uM incubated for 48 hrs by AO and Hoechst 33258 staining based assay; format: functional, cell-based; settings: dose microM 0.5-10, time 48.0 hrs
A549 [16] = experiment: Induction of necrosis in human A549 cells by LDH assay; format: functional, cell-based
[17] = target: T1, Myeloperoxidase (Homo sapiens); experiment: Effect on MPO in human A549 cells assessed as reduction in peroxidation activity at 10 uM measured after 3 to 12 hrs by fluorescence assay; format: cell-based; settings: filed as modulator, time hrs 3-12
A549 [18] = experiment: Cytotoxicity against human A549 cells assessed as reduction in cell growth incubated for 24 to 48 hrs; format: functional, cell-based
[19] = Drug uptake in LPS stimulated mouse RAW264.7 cells assessed as increase in HOCL mediated fluorescence intensity at 1 uM after 1 hr by confocal microscopic analysis; format: ADME; settings: raw264.7, 1 h
A549 [20] = experiment: Induction of morphological changes in human A549 cells assessed as nuclear condensation at 0.5 to 10 uM incubated for 48 hrs by AO and Hoechst 33258 staining based assay; format: functional, cell-based; settings: dose microM 0.5-10, time 48.0 hrs

## O=c1[nH]cc(F)c(=O)[nH]1
A549 [1]
  Activity: Active
A549 [2]
  Activity: Active

## CCN(CC)c1ccc2cc(C3Nc4cccc5cccc(c45)N3)c(=O)oc2c1
Chorioallantoic membrane [3]
  Activity: Non-Toxic
RAW264.7 [4]
  Activity: 50.5%
A549 [5]
  Activity: Active
[6]
  Activity: Active
A549 [7]
  Activity: Active
A549 [8]
  Activity: Active
RAW264.7 [9]
  Stabilty: Stable
A549 [10]
  Activity: Active
A549 [11]
  Activity: Active
HUVEC
  Activity: Non-Toxic
Chorioallantoic membrane [12]
  Activity: Non-Toxic
RAW264.7 [13]
  Activity: Non-Toxic
RAW264.7 [14]
  Activity: 61%
A549 [15]
  Activity: Active
A549 [16]
  Activity: inactive
[17]
  Activity: Active
A549 [18]
  IC50: 4.3 µM
[19]
  Drug uptake: Active
A549 [20]
  Activity: Active
